Experimental data taken from PubChem BioAssay AID344 (DTP/NCI, 2004).
“And” between values parts separate entries of the source, which are not always exact repeats. Equal entries are not always repeated. Inconclusive results and toxic doses are left out. The calls were made as follows: active = survival T/C of 150% or more; inactive = T/C below 125% in these data. *1 amine or outer side, *2 acyl side, *3 side chain or, on linkers, in order; H or OH if unused. Where a SMILES comes first, the peptide text is derived from it. Bridges are numbered along the chain shown (N, C = ends). Roman numbers before positions name the chains, in order. [ ]: non-standard residue; d: D form. Actinocin(9to1) = Cc1c2oc3c(C)ccc(C(=O)[*:1])c3nc-2c(C(=O)[*:2])c(N)c1=O; aThr = C[C@H](O)[C@H](N)C(=O)O; NMeV = CN[C@H](C(=O)O)C(C)C; Sar = CNCC(=O)O

Tested on: mice, LPC-1 plasma cell tumor ip, median survival T/C
Assay: NCI In Vivo Anticancer Drug Screen. Data for tumor model Lieberman Plasma Cell No. 1 (LPC-1) (intraperitoneal) in unknown mice
Conditions: endpoint: median survival time, higher = longer survival
Protocol: The antitumor activity of compounds was measured in mice bearing transplantable tumors. Survival or tumor size were measured and the results are expressed as the measurement made in the treated group (T) divided by the measurement made in the vehicle treated control group (C). The tumor model used in this assay is Lieberman Plasma Cell No. 1 (LPC-1) (intraperitoneal) in unknown mice

Measured: T/C

CS(=O)(=O)OCCC(=O)NCNC(=O)CCOS(C)(=O)=O
inactive: dose: 12.5 mg/kg/injection, schedule: Q01DX012 (sc), vehicle: carboxymethylcellulose (CMC) 105 % of control | dose: 50.0 mg/kg/injection, schedule: Q01DX012 (sc), vehicle: carboxymethylcellulose (CMC) 110 % of control | dose: 50.0 mg/kg/injection, schedule: Q01DX028 (sc), vehicle: carboxymethylcellulose (CMC) 107 % of control and 121 % of control | dose: 75.0 mg/kg/injection, schedule: Q01DX028 (sc), vehicle: carboxymethylcellulose (CMC) 87 % of control
active: dose: 6.25 mg/kg/injection, schedule: Q01DX028 (sc), vehicle: carboxymethylcellulose (CMC) 184 % of control | dose: 12.5 mg/kg/injection, schedule: Q01DX028 (sc), vehicle: carboxymethylcellulose (CMC) 223 % of control and 276 % of control | dose: 25.0 mg/kg/injection, schedule: Q01DX012 (sc), vehicle: carboxymethylcellulose (CMC) 328 % of control | dose: 25.0 mg/kg/injection, schedule: Q01DX028 (sc), vehicle: carboxymethylcellulose (CMC) 200 % of control and 230 % of control

O=NN(CCCl)C(=O)NCCCl
inactive: dose: 0.65 mg/kg/injection, schedule: Q01DX028 (sc), vehicle: saline 109 % of control | dose: 1.08 mg/kg/injection, schedule: Q01DX028 (sc), vehicle: saline 107 % of control
active: dose: 2.4 mg/kg/injection, schedule: Q01DX028 (sc), vehicle: saline 157 % of control | dose: 3.0 mg/kg/injection, schedule: Q01DX028 (sc), vehicle: saline 157 % of control and 185 % of control | dose: 5.0 mg/kg/injection, schedule: Q01DX028 (sc), vehicle: saline 195 % of control and 202 % of control

Cc1cc(N(CCCl)CCCl)ccc1C=Nc1ccccc1-c1ccccc1
inactive: dose: 23.0 mg/kg/injection, schedule: Q01DX015 (sc), vehicle: carboxymethylcellulose (CMC) 92 % of control | dose: 180.0 mg/kg/injection, schedule: Q01DX015 (sc), vehicle: carboxymethylcellulose (CMC) 102 % of control

CS(=O)(=O)OCCN(CCOS(C)(=O)=O)c1ccc(/C=N/Nc2ncnc3nc[nH]c23)cc1
active: dose: 8.0 mg/kg/injection, schedule: Q01DX028 (sc), vehicle: carboxymethylcellulose (CMC) 186 % of control | dose: 20.0 mg/kg/injection, schedule: Q03HX056 (sc), vehicle: other 150 % of control | dose: 36.0 mg/kg/injection, schedule: Q01DX028 (sc), vehicle: carboxymethylcellulose (CMC) 171 % of control | dose: 55.0 mg/kg/injection, schedule: Q01DX028 (sc), vehicle: carboxymethylcellulose (CMC) 210 % of control | dose: 79.0 mg/kg/injection, schedule: Q01DX028 (sc), vehicle: other 158 % of control | dose: 80.0 mg/kg/injection, schedule: Q01DX028 (ip), vehicle: other 177 % of control | dose: 119.0 mg/kg/injection, schedule: Q01DX028 (sc), vehicle: other 210 % of control | dose: 120.0 mg/kg/injection, schedule: Q01DX028 (ip), vehicle: other 166 % of control | dose: 120.0 mg/kg/injection, schedule: Q01DX028 (sc), vehicle: carboxymethylcellulose (CMC) 175 % of control and 252 % of control | dose: 120.0 mg/kg/injection, schedule: Q01DX028 (sc), vehicle: other 189 % of control | dose: 179.0 mg/kg/injection, schedule: Q01DX028 (sc), vehicle: other 187 % of control | dose: 180.0 mg/kg/injection, schedule: Q01DX028 (sc), vehicle: carboxymethylcellulose (CMC) 164 % of control and 238 % of control | dose: 180.0 mg/kg/injection, schedule: Q01DX028 (sc), vehicle: other 166 % of control | dose: 269.0 mg/kg/injection, schedule: Q01DX028 (sc), vehicle: other 166 % of control | dose: 270.0 mg/kg/injection, schedule: Q01DX028 (sc), vehicle: carboxymethylcellulose (CMC) 202 % of control
218 % of control and 102 % of control: dose: 80.0 mg/kg/injection, schedule: Q01DX028 (sc), vehicle: carboxymethylcellulose (CMC)
inactive: dose: 5.0 mg/kg/injection, schedule: Q03HX056 (sc), vehicle: other 111 % of control | dose: 10.0 mg/kg/injection, schedule: Q03HX008 (sc), vehicle: other 100 % of control | dose: 10.0 mg/kg/injection, schedule: Q03HX056 (sc), vehicle: other 116 % of control | dose: 20.0 mg/kg/injection, schedule: Q03HX008 (sc), vehicle: other 102 % of control | dose: 40.0 mg/kg/injection, schedule: Q03HX008 (sc), vehicle: other 116 % of control | dose: 80.0 mg/kg/injection, schedule: Q01DX001 (sc), vehicle: other 94 % of control | dose: 80.0 mg/kg/injection, schedule: Q03DX004 (sc), vehicle: other 111 % of control | dose: 80.0 mg/kg/injection, schedule: Q03HX008 (sc), vehicle: other 108 % of control | dose: 120.0 mg/kg/injection, schedule: Q01DX028 (oral), vehicle: other 122 % of control | dose: 120.0 mg/kg/injection, schedule: Q03DX004 (sc), vehicle: other 116 % of control | dose: 160.0 mg/kg/injection, schedule: Q01DX001 (sc), vehicle: other 97 % of control | dose: 180.0 mg/kg/injection, schedule: Q01DX028 (ip), vehicle: other 111 % of control | dose: 180.0 mg/kg/injection, schedule: Q03DX004 (sc), vehicle: other 116 % of control | dose: 270.0 mg/kg/injection, schedule: Q01DX028 (ip), vehicle: other 122 % of control | dose: 270.0 mg/kg/injection, schedule: Q01DX028 (oral), vehicle: other 119 % of control | dose: 270.0 mg/kg/injection, schedule: Q03DX004 (sc), vehicle: other 116 % of control | dose: 320.0 mg/kg/injection, schedule: Q01DX001 (sc), vehicle: other 105 % of control | dose: 640.0 mg/kg/injection, schedule: Q01DX001 (sc), vehicle: other 105 % of control

Cc1c2oc3c(C)ccc(C(=O)N[C@@H]4C(=O)N[C@H](C(C)C)C(=O)N5CCC[C@H]5C(=O)N(C)CC(=O)N(C)[C@@H](C(C)C)C(=O)O[C@H]4C)c3nc-2c(C(=O)N[C@@H]2C(=O)N[C@H](C(C)C)C(=O)N3CCC[C@H]3C(=O)N(C)CC(=O)N(C)[C@@H](C(C)C)C(=O)O[C@H]2C)c(N)c1=O (I: [aThr][dV]P[Sar][NMeV] / II: [aThr][dV]P[Sar][NMeV]; ester I:1-I:C, II:1-II:C; linker I:N-II:N via Actinocin(9to1))
inactive: dose: 0.03 mg/kg/injection, schedule: Q01DX028 (sc), vehicle: saline 95 % of control | dose: 0.06 mg/kg/injection, schedule: Q01DX028 (sc), vehicle: saline 100 % of control | dose: 0.13 mg/kg/injection, schedule: Q01DX028 (sc), vehicle: saline 95 % of control | dose: 0.25 mg/kg/injection, schedule: Q01DX028 (sc), vehicle: saline 90 % of control

Nc1cc2ncccc2c2ncccc12
inactive: dose: 37.5 mg/kg/injection, schedule: Q01DX028 (sc), vehicle: steriod suspending solution 104 % of control | dose: 75.0 mg/kg/injection, schedule: Q01DX028 (sc), vehicle: steriod suspending solution 104 % of control | dose: 150.0 mg/kg/injection, schedule: Q01DX028 (sc), vehicle: steriod suspending solution 112 % of control

COc1cc2cccnc2c2[nH]ccc(=O)c12
inactive: dose: 50.0 mg/kg/injection, schedule: Q01DX009 (sc), vehicle: saline 100 % of control | dose: 100.0 mg/kg/injection, schedule: Q01DX009 (sc), vehicle: saline 92 % of control | dose: 200.0 mg/kg/injection, schedule: Q01DX009 (sc), vehicle: saline 102 % of control | dose: 400.0 mg/kg/injection, schedule: Q01DX009 (sc), vehicle: saline 104 % of control

CNNCc1ccc(C(=O)NC(N)=O)cc1
inactive: dose: 50.0 mg/kg/injection, schedule: Q01DX028 (sc), vehicle: saline 100 % of control | dose: 100.0 mg/kg/injection, schedule: Q01DX028 (sc), vehicle: saline 105 % of control | dose: 200.0 mg/kg/injection, schedule: Q01DX028 (sc), vehicle: saline 102 % of control

CS(=O)(=O)OCCCCOS(C)(=O)=O
inactive: dose: 1.25 mg/kg/injection, schedule: Q01DX028 (sc), vehicle: carboxymethylcellulose (CMC) 92 % of control | dose: 2.5 mg/kg/injection, schedule: Q01DX028 (sc), vehicle: carboxymethylcellulose (CMC) 102 % of control | dose: 5.0 mg/kg/injection, schedule: Q01DX028 (sc), vehicle: carboxymethylcellulose (CMC) 102 % of control | dose: 10.0 mg/kg/injection, schedule: Q01DX028 (sc), vehicle: carboxymethylcellulose (CMC) 123 % of control

CCOC(=O)c1c[nH]c2ccc(N(CCCl)CCCl)cc12
inactive: dose: 23.0 mg/kg/injection, schedule: Q01DX028 (sc), vehicle: carboxymethylcellulose (CMC) 112 % of control | dose: 39.0 mg/kg/injection, schedule: Q01DX028 (sc), vehicle: carboxymethylcellulose (CMC) 110 % of control | dose: 65.0 mg/kg/injection, schedule: Q01DX028 (sc), vehicle: carboxymethylcellulose (CMC) 89 % of control | dose: 108.0 mg/kg/injection, schedule: Q01DX015 (sc), vehicle: carboxymethylcellulose (CMC) 97 % of control | dose: 108.0 mg/kg/injection, schedule: Q01DX028 (sc), vehicle: carboxymethylcellulose (CMC) 87 % of control
